Measured values from patent US6649605B2, “Treatment of tension-type headaches with NMDA receptor antagonists” (Head Explorer A/S, priority 1996, dated 2003).
Entries after “also recorded” stand apart in the source; their conditions may differ.

What was measured:
[1] = test system: patients with chronic tension-type headache; experiment: Pressure pain detection thresholds (electronic pressure algometer) after L-NMMA; type: in vivo, human
From the text: Sixteen patients with a diagnosis of chronic tension-type headache according to the criteria of the International Headache Society (Headache Classification Committee 1988) were included (Table XVII). Five of the patients had coexisting infrequent migraine (<four days/year). The patients were recruited from the out-patient headache clinic at Glostrup University Hospital without respect to presence or absence of myofascial tenderness. All patients underwent a general physical and a neurological examination and completed a diagnostic headache diary during a 4-week run-in period (Russell et al. 1992). […]
The recordings were performed in a standardized manner by the same observer, a trained technician (HA), throughout the study. All parameters were recorded at baseline, 60 and 120 minutes after start of infusion. […] Headache intensity was measured on a 100 mm Visual Analog Scale (VAS) (0-no headache and 100-worst imaginable headache) before, during and after start of infusion.
Pressure pain thresholds Pressure pain detection thresholds (PPDTs) were measured at the dorsum of the second finger (middle phalanx) and at a fixed point at the anterior part of the temporal muscle as previously described (Bendtsen et al. 1996b). […] Each threshold was calculated as the mean of five consecutive determinations performed with intervals of approximately 30 seconds. […]

[2] = test system: patients with chronic tension-type headache; experiment: Double-blind crossover i.v. L-NMMA vs placebo: headache intensity on VAS and VRS; type: in vivo, human
From the text: Sixteen patients With a diagnosis of chronic tension-type headache according to the criteria of the International Headache Society, (headache Classification Committee 1988) were recruited from the out-patient headache clinic at Glostrup Hospital. There were 12 women and 4 men with a mean age (range) of 38.5 (23-52) years. Five patients with coexisting infrequent migraine (£ one day/month) were accepted. All patients completed a diagnostic headache diary during a 4-week run-in period (Russell et al. 1992). At screening, a full physical and neurological examination, including 12-lead ECG were carried out. Blood samples for routine haematological and biochemical testing, and urine sample for urine analysis were taken. The patients were not allowed to take analgesics 12 hours prior to the treatment. Exclusion criteria were: daily medication (including prophylactic headache therapy but not oral contraceptives); pregnant or breast feeding women; abuse of analgesics (corresponding to>2 gm of aspirin/day) or alcohol, serious somatic or psychiatric diseases including depression (Hamilton Depression Score ^317 (Hamilton 1960)); ischemic heart disease; a supine diastolic blood pressure >90 mmHg or heart rate <50 beats per minute at study entry. All patients gave written informed consent to participate in the study, which was approved by The local ethics committee and conducted in accordance with the Declaration of Helsinki.
Randomization (Med.Stat) and drug preparation were performed by staff not involved in the study. The medication was given over 15 minutes into an antecubital vein (Braun Perfusor). The following parameters were measured at baseline and […] post administration: headache intensity on a 100-mm Visual Analog Scale (VAS) (0-no headache and 100-worst imaginable headache) and on a Verbal Rating Scale (VRS) from 0-10 (0-no headache; 5-moderate headache; 10-worst imaginable headache). Blood pressure and pulse rate were measured 5 minutes prior to administration of treatment and at 5, 10, 15, 20, 25, 30, 60, 90 and 120 minutes post administration. Twelve-lead ECG was monitored continuously. Any adverse events were recorded. Patient with unrelieved headache at 120 minutes post treatment were allowed to take rescue medication. All patients were asked to record details of the following on a diary card at 4, 8, 12, 16, 20 and 24 hours post administration, headache intensity on VRS, any medication taken and adverse events. Between 4-7 days after each treatment, the patients returned to the clinic, the diary cards were collected and any adverse events were noted.
Primary endpoint was the reduction of pain intensity over time on active treatment compared to placebo. The secondary endpoints were reduction of pain intensity at 30, 60, 90 and 120 minutes post dosing on VAS and VRS compared to pre-treatment pain score within each treatment. Comparison of pain intensity on VAS, blood pressure and pulse rate over time between treatments were performed With ANOVA. Paired-Samples T Test was used to compare pre-treatment pain score on VAS with pain score at 30, 60, 90, 120 minutes post dosing within each treatment. The sum of differences between the pre-treatment VRS score and the VRS score at 30, 60, 90, 120 minutes post dosing was calculated in order to obtained a summary measure of pain score for each treatment (Matthews et al. 1990). These sums of differences for each treatment were compared by Wilcoxon Signed Rank test. Five percent was accepted as level of significance.
The recordings were performed in a standardized manner by the same observer, a trained technician (HA), throughout the study. All parameters were recorded at baseline, 60 and 120 minutes after start of infusion. The trial was designed as a double blind, placebo controlled, crossover study. […] The patients were not allowed to take analgesics 12 hours prior to the examination. […]

CN=C(N)NCCC[C@H](N)C(=O)O.Cl [L-NMMA, L-N^G methyl arginine hydrochloride]
PPDTs compared with pre-treatment values ([1]; finger and temporal region, hydrochloride): no changes in PPDTs at 60 and 120 minutes; also recorded: largely unchanged
PPDTs compared with placebo ([1]; finger p=0.78, temporal region p=0.77): no significant difference
Pain intensity (VAS) over time compared with placebo ([2]; 6 mg/kg i.v., 16 patients, ANOVA, hydrochloride): reduced pain intensity (VAS) over time significantly more than placebo; also recorded: effective in the treatment of patients with chronic tension-type headache; also recorded: significantly reduced
Pain score compared with pre-treatment value within treatment ([2]; 6 mg/kg i.v., post treatment time points, hydrochloride): significantly reduced after 30, 60, 90 and 120 minutes; also recorded: significantly reduced at each time point
Pain score on VAS, 30 minutes ([2]; 30 minutes post dosing, 100-mm VAS, 6 mg/kg i.v., mean (SD)): 38 ± 18
Pain score on VAS, 60 minutes ([2]; 60 minutes post dosing, 100-mm VAS, 6 mg/kg i.v., mean (SD)): 35 ± 18
Pain score on VAS, 90 minutes ([2]; 90 minutes post dosing, 100-mm VAS, 6 mg/kg i.v., mean (SD)): 34 ± 21
Pain score on VAS, 120 minutes ([2]; 120 minutes post dosing, 100-mm VAS, 6 mg/kg i.v., mean (SD)): 33 ± 21
Pain intensity on VRS compared with placebo ([2]; Verbal Rating Scale 0-10, 6 mg/kg i.v., p=0.02): significantly lower
Duration of antinociceptive effect on headache intensity and of reduction of muscle hardness and tenderness ([2]; after start of infusion, 6 mg/kg i.v.): at least 120 minutes
Pain score on VAS, baseline ([2]; before treatment, 100-mm VAS, 6 mg/kg i.v. over 15 minutes, mean (SD), 16 patients): 49 ± 16
